Measurements as given in patent publication US12239719B2, “Fluorochemical targeted therapies” (MT RESEARCH, LLC, priority 2016, dated 2025).

Experiments:
[1] = tested on: metastatic pulmonary osteosarcoma; experiment: Aerosol treatment of dog with metastatic pulmonary osteosarcoma; type: in vivo; details: control dogs (n=50), gemcitabine alone
Method: A dog with extensive metastatic pulmonary osteosarcoma was treated with 60% perflubron emulsion (PFCE) containing 9 mg/mL gemcitabine (GCB) (PFCE-GCB=1000 mg GCB in 110 mL 60% perflubron emulsion). Aerosolized PFCE-GCB was delivered to the lungs of the dog twice weekly using an AeroTech™ II nebulizer (Biodex Medical Systems, Inc., Shirley, NY).
Treatment was discontinued at 6 months.
Control dogs (n=50) received gemcitabine alone.

[2] = oral (drink); cited from earlier work

| SMILES | durable tumor eradication [1] | fraction absorbed [2] |
| --- | --- | --- |
| Nc1ccn([C@@H]2O[C@H](CO)[C@@H](O)C2(F)F)c(=O)n1 [gemcitabine] | tumors returned in all control cases |  |
| COC(=O)c1ccc2c(c1)NC(=O)/C2=C(\Nc1ccc(N(C)C(=O)CN2CCN(C)CC2)cc1)c1ccccc1 [nintedanib] |  | 5% |
